{
  "source": "patent EP0687469A2",
  "about": "“Anti-arrhythmic 3,7-diazabicyclo (3,3,1)nonane compounds” (Kali-Chemie Pharma GmbH, priority 1994, dated 1995)",
  "key": {"[1]": {"test_system": "verz.gleichr. Auswärtsstrom Ik", "test": "voltage clamp measurement of ion currents in isolated heart muscle cells (Ik)", "type": "cell-based, Meerschweinchen", "conditions": "read-out: Blockade von Ionenströmen in % des Vorwerts verz.gleichr. Auswärtsstrom Ik", "source_text": "(§1) Die Experimente wurden mit der Spannungsklemmmethode an isolierten Herzmuskelzellen von Meerschweinchen und Ratten durchgeführt. Hierbei wurden die Messungen des Ito an Zellen von Rattenherzen und die Messungen des Ik an Zellen von Meerschweinchenherzen durchgeführt. Die Herzen wurden mit proteolytischen Enzymen (Collagenase) perfundiert, um das Bindegewebe zu lockern. Anschließend wurde das Gewebe mechanisch zerkleinert und sodann erfolgte eine weitere Vereinzelung der Zellen in einer Nährlösung im Schüttelbad. Durch anschließendes Zentrifugieren wurde eine Suspension von Herzmuskelzellen erhalten. Bei der angewendeten Spannungsklemmethode zur Messung der Membranströme wird mittels einer Mikroelektrode (in Form einer mit Elektrolytlösung gefüllten Glaskapillare) das Zellinnere mit einem Verstärker verbunden, der die Membranspannung vorgeben kann. Fließt nun ein Ionenstrom durch die Membran (= Öffnung des Ionenkanalproteins) und verschiebt die Membranspannung, kompensiert der Verstärker diese Verschiebung durch einen Gegenstrom, d. h. die Spannung ist sozusagen festgeklemmt. Der gemessene Gegenstrom entspricht in seinem zeitlichen Verlauf dem physiologischen Ionenstrom mit umgekehrtem Vorzeichen. Die Aktivierung der verschiedenen Ionenströme in der Zellmembran hängt charakteristisch von Spannung und Zeit ab. […]"}, "[2]": {"test_system": "transienter Auswärtsstrom Ito", "test": "voltage clamp measurement of ion currents in isolated heart muscle cells (Ito)", "type": "cell-based, Ratten", "conditions": "read-out: Blockade von Ionenströmen in % des Vorwerts transienter Auswärtsstrom Ito", "source_text": "as §1"}},
  "data": [
    {"smiles": "CC(C)CN1CC2CN(C(C)C)CC(C1)C21CCCCC1", "note": "[Bertosamil, N-Isobutyl-N'-isopropyl-9,9-pentamethylen-3,7-diazabicyclo[3,3,1]nonan]", "values": [
      {"measurement": "inhibition at 1 µM", "setting": "[1]", "result": 13, "unit": "%"},
      {"measurement": "inhibition at 1 µM", "setting": "[2]", "result": 38, "unit": "%"}
    ]}
  ]
}
